According to patent US8071368B2, “Methods for promoting growth and survival of insulin-secreting cells” (Alizé Pharma SAS, priority 2001, dated 2011):
Non-standard residues stand in square brackets, D forms with d. Residues, ends and D or L forms follow the SMILES beside them. No end group written: not given here. *: point of attachment. dTrp(2-Me) = Cc1[nH]c2ccccc2c1C[C@@H](N)C(=O)O; Octanoyl = CCCCCCCC(=O)*

Tests used:
[1] = tested on: HIT-T15 cells; test: HIT-T15 cell proliferation, BrdU incorporation; type: cell-based; details: for effect on unacylated ghrelin-induced cell proliferation: preincubation, unacylated ghrelin 100 nM, NF449 10 μM, PTX 50 ng/ml
Experimental: This effect was similar to that observed in cells cultured in normal conditions, i.e. in the presence of serum (15% HS, 2.5% FBS).
To investigate the signaling pathways involved in ghrelin mitogenic effect, the cells were preincubated (30 min) with NF449, a selective Gαs protein-coupled receptor antagonist.
In FIG. 8A to 8E, HIT-T15 cells were cultured in serum-free medium (Control) for 24 h, UAG alone or with NF449 and pertussis toxin (PTX) were added to the incubation medium for further 24 h. In FIG. 8A, cell proliferation was measured by BrdU uptake in cells cultured in the presence or absence of serum, UAG at the concentrations indicated. […] Data are expressed as the percentage relative to control and are the means±SEM of eight replicates within a single representative experiment that was repeated at least 3 times (*P<0.05,**P<0.01).
(§1) In FIG. 9B, apoptosis is evaluated by counting condensed/fragmented Hoechst-stained nuclei (SF, serum-free medium). Values are expressed as percent of apoptotic cells and are the mean±SEM of duplicate determinations (500 cells each) of three independent experiments (*P<0.05; **P<0.01). In FIG. 9C, cell proliferation is assessed by BrdU uptake (ELISA). The results are expressed as percent of control (serum starved cells) and are the mean±SEM of three independent experiments (*P<0.05,**P<0.01). FIG. 9D illustrates ghrelin secretion in HIT-T15 conditioned medium following exposure to either serum, SF±cytokines. The results are the mean±SEM of three independent experiments, each performed in quadruplicate (*P<0.05). In FIG. 9E, apoptosis is determined by Hoechst 33258 of cells cultured for 48 h in the presence of serum or in SF medium alone with addition of an anti-ghrelin antibody (α-ghrelin Ab), (*P<0.05,**P<0.01 vs 0 μg/ml α-ghrelin Ab in each condition).

[2] = tested on: HIT-T15 cell membranes; test: 125I-[Tyr4]-unacylated ghrelin binding to HIT-T15 cell membranes; details: unlabeled competitor
Text: Binding is expressed as percentage of control (specific binding in the absence of unlabeled competitor);

[3] = ghrelin and GH rhythms during three days fasting, GHRP-6 bolus, healthy volunteers; type: in vivo, human; details: 1 μg/kg on the 3rd day of fasting
Experimental: In order to understand the diurnal rhythms of ghrelin and GH secretion during fasting, a study was conducted on 10 healthy human volunteers with normal body mass index. […] Fasting rapidly induces a diurnal ghrelin rhythm that is followed by a similar GH rhythm. […] This phenomenon cannot be explained by changes in insulin, glucose or free fatty acid levels. Thus it appears that the metabolic effects of ghrelin are distinct from its effects on GH secretion.
By the use of the GH receptor antagonist pegvisomant, indirect evidence was provided that these changes in serum ghrelin levels are not regulated by the GH receptor. Finally, it was shown that administration of the synthetic GHS, GHRP-6, produced a decrease in peak ghrelin levels, but this effect was only observed after several hours, indicating the existence of a long-loop feedback system of GHS's on ghrelin secretion.

[4] = preprandial GHS administration in normal human beings with GH receptor antagonist pegvisomant; type: in vivo; details: 1 μg/Kg i.v. preprandial
Text: Because in this study GH-action was blocked by pegvisomant, these GHS-mediated metabolic changes on the “gastro-entero-hepatic axis” must be direct and non-pituitary mediated.

[5] = tested on: HIT-T15 cells; test: HIT-T15 apoptosis, Hoechst 33258 staining; type: cell-based
Text: Apoptosis is the main form of pancreatic β-cell death in animal models of type 1 diabetes mellitus. […] Moreover, they partially lost their capacity to form islet-like structures (FIG. 9A, upper panel, and 9B). Cytokines further increased apoptosis (˜27%), cells appearing smaller and unable to form islets (FIG. 9A, lower panel, and FIG. 9B). […] Accordingly, others have reported that ghrelin exerts proliferative and antiapoptotic effects at high concentrations […] in different cell types.
as §1

[6] = 16 h intravenous infusion of unacylated ghrelin in healthy males; type: in vivo, human; details: 1.0 μg/Kg/h iv 16 h
[7] = co-administration of unacylated ghrelin and ghrelin in normal human volunteers; type: in vivo; details: 1 μg/kg iv at 0 min with ghrelin 1 μg/kg iv
Text: Thus it appears that unacylated ghrelin is acting as a functional antagonist of the peripheral actions of ghrelin.

[8] = tested on: cAMP; test: intracellular cAMP concentration in HIT-T15 cells; type: cell-based; details: 100 nM, with IBMX
Experimental: Initially, the unacylated ghrelin-induced cAMP intracellular variation was examined.
cAMP induction by ghrelin was then evaluated at 15 min in either serum-free medium alone or with addition of IFN-γ/TNF-α in the presence of IBMX.
The results are the mean±SEM of three independent experiments performed in triplicate (*P<0.05 vs basal time point). FIG. 10B illustrates the cAMP levels in cells incubated in the presence of serum or in serum-free (SF) medium±unacylated ghrlein (100 nM each) alone or with IFN-γ/TNF-α combination (100 ng/ml and 200 ng/ml respectively). Data are the mean±SEM of at least three independent experiments performed in triplicate (*P<0.05).

[9] = tested on: HIT-T15 cells; test: HIT-T15 cell survival, MTT assay; type: cell-based; details: serum-free conditions and in the presence of cytokines
[10] = tested on: caspase-3; test: caspase-3 activation in HIT-T15 cells; type: cell-based; details: serum-starved and cytokine-treated cells, data not shown
[11] = glucose and insulin after single intravenous human ghrelin in healthy young male volunteers; type: in vivo; details: 1.0 μg/kg i.v. at 0', vs placebo

## O=C(Nc1cc(C(=O)Nc2ccc(S(=O)(=O)O)cc2S(=O)(=O)O)cc(C(=O)Nc2ccc(S(=O)(=O)O)cc2S(=O)(=O)O)c1)Nc1cc(C(=O)Nc2ccc(S(=O)(=O)O)cc2S(=O)(=O)O)cc(C(=O)Nc2ccc(S(=O)(=O)O)cc2S(=O)(=O)O)c1 [NF449, reference compound]
[1]
  effect on unacylated ghrelin-induced cell proliferation: complete blockade

## Cc1[nH]c2ccccc2c1C[C@@H](NC(=O)[C@@H](N)Cc1cnc[nH]1)C(=O)N[C@@H](C)C(=O)N[C@@H](Cc1c[nH]c2ccccc12)C(=O)N[C@H](Cc1ccccc1)C(=O)N[C@@H](CCCCN)C(N)=O [hexarelin] (H-H[dTrp(2-Me)]AW[dF]K-NH2)
[2]
  competition with 125I-labeled [Tyr4]-unacylated ghrelin for binding sites: competed

## GHRP-6
[3]
  peak ghrelin levels: attenuated peak ghrelin levels in the afternoon
[4]; in the presence of pegvisomant
  serum insulin concentrations: impressive increase in serum insulin concentrations
[4]; only in the presence of pegvisomant
  postprandial serum glucose levels: induces a postprandial increase in serum glucose levels

## NH2Gly-Ser-Ser-Phe-Leu-Ser-Pro-Glu-His-Gln-Arg-Val-Gln-Gln-Arg-Lys-Glu-Ser-Lys-Lys-Pro-Pro-Ala-Lys-Leu-Gln-Pro-Arg (H-GSSFLSPEHQRVQQRKESKKPPAKLQPR) [unacylated ghrelin]
[2]
  competition with 125I-labeled [Tyr4]-unacylated ghrelin for binding sites: competed
[5]; 100 nm, serum-deprived medium
  serum-starvation-induced apoptosis: almost completely prevented
[5]; 100 nm, cytokines alone ~27%
  apoptosis triggered by the IFN-γ/TNF-α combination, percent of apoptotic cells: ~12%
[5]; data not shown
  lowest significantly active concentration, antiapoptotic effect: 1 nm
[6]; post-prandially and at fasting
  FFA profile: reduced both post-prandially (p<0.01) and at fasting
[6]; vs saline
  glucagon profile: significantly modified the profile of all parameters, except glucagon
  total insulin AUC: did not modify
[6]; vs saline, p<0.01
  GH AUC: lower
  cortisol AUC: lower
  free fatty acid (FFA) AUC: decreased
  glucose AUC: decreased
[6]; dinner p<0.01, breakfast p<0.05
  early insulin response to dinner and breakfast: enhanced
[1]; 100 nM, cytokines 100 ng/ml and 200 ng/ml, 24 h
  cell proliferation in the presence of IFN-γ/TNF-α: dramatically restored cell proliferation
[1]; serum-free medium, 1 pm to 1 μm, 24 h
  cell proliferation (BrdU incorporation): significantly and dose-dependently induced cell proliferation
[7]
  ghrelin-induced decrease in insulin levels: totally prevented
  ghrelin-induced increase in glucose: totally prevented
[8]; serum starved cells, 5 to 60 min
  cAMP levels over time: transient increase within 5 min
[8]; serum-free medium alone or with IFN-γ/TNF-α
  cAMP at 15 min: significantly up-regulated cAMP
[9]
  cell viability (MTT): significantly increased cell viability
[10]
  caspase-3 activation: significantly reduced

## ghrelin: gastric hormone of 28 amino acids with an n-octanoyl ester at its third serine residue (GSS(Octanoyl)FLSPEHQRVQQRKESKKPPAKLQPR)
[11]
  Δ glucose: elevation in glucose
  Δ insulin: acute decrease in insulin

## pertussis toxin [reference compound]
[1]
  effect on unacylated ghrelin-induced cell proliferation: had no effect
